The values below come from patent US6069177A, “3-Hydroxy-propanamine derived neuronal reuptake inhibitors” (priority 1997, dated 2000).

Assay [1] concerns the target T1, NE reuptake into rat brain synaptosomes (Rattus norvegicus, UniProt Q63380).
T1 construct: A crude synaptosomal (P2) fraction was prepared; tissue Harlan Sprague-Dawley (animals); host or cells: rat hippocampus, crude synaptosomal (P2) fraction
The assay is described as follows: biochemical. Set-up: species or system rat (male Sprague-Dawley), hippocampal tissue.

Assay [2] has as its target T2, DA reuptake into rat brain synaptosomes (Rattus norvegicus, UniProt P23977).
T2 construct: A crude synaptosomal (P2) fraction was prepared; tissue Harlan Sprague-Dawley (animals); host or cells: rat striatum, crude synaptosomal (P2) fraction
As to the kind of experiment: DA reuptake inhibition in rat brain synaptosomes. Type of assay: biochemical, rat (male Sprague-Dawley), striatal tissue. The following applies: for DA (Rat) Reuptake Inhibition Potency: Ki (DA)/Ki (compound or drug), Prozac to Serzone derived from literature Ki.

In assay [3] the test system is 5-HT, NE and DA reuptake into rat brain synaptosomes. The class given is biochemical, rat (male Sprague-Dawley). The following applies: for block uptake of all three neurotransmitters (5-HT, NE, and DA), Ki in words: rat brain synaptosomes. On the procedure:
(§1) Briefly, the tissue was homogenized in 20 volumes of ice-cold 0.32 M sucrose containing 11 mM glucose, pH 7.4 in a glass Potter-Elvehjemhomogenizer with teflon pestle (8 strokes, 900 rpm). The homogenate was centrifuged at 1,000 g for 10 minutes. The resulting supernatant was then centrifuged at 20,000 g for 20 minutes and the supernatent was discarded.
(§2) Briefly, synaptosomal protein (1.0-2.5 mg) was suspended in a total volume of 1 mL containing oxygenated incubation buffer, 10 μM pargyline to inhibit monoamine oxidase activity, 0.2 mg/mL sodium ascorbate and varying concentrations of other compounds or drugs as indicated in the text. […] After a 5 minute preincubation at 37° C. in a shaking water bath (80 oscillations/minute), the uptake was initiated by the addition of […]. The reaction was stopped after 5 minute by adding 4 mL ice-cold 0.9% (w/v) sodium chloride and rapidly filtered through a Whatman GF/B glass fiber filter in a 48-place Brandel cell harvester. The filter was then washed with an additional 8 mL of wash buffer, placed in a scintillation vial containing 5 mL of Redi-Safe (Beckman Instruments, Fullerton, Calif.) and counted. Specific uptake was calculated as the difference between the total uptake (zero unlabelled ligand) and nonspecific uptake (excess unlabelled ligand).

For assay [4], the target named is T3, human serotonin transporter (hSERT) (Homo sapiens, UniProt P31645).
T3 construct: expressed in transfected cells; membranes of cells expressing the cloned hSERT
The class given is binding. On the procedure:
(§3) These transporters are responsible for neuronal reuptake of the neurotransmitters.
(§4) Cells were incubated in 10% CO2, 90% air at 37° C. and 100% humidity. The selecting antibiotic geneticin sulfate (250 μg/ml) was used during the cell culture for the hNET only.
(§5) For the preparation of homogenates, medium was removed by aspiration. […] Cells were then scraped from the surface with a rubber spatula into a centrifuge tube and collected by centrifugation at 1000×g for 5 min at 4° C. Supernatants were decanted and the pellet was resuspended in the appropriate binding buffer and homogenized with the use of a Polytron for 10 sec at setting 6. This solution was centrifuged at about 36,000×g for 10 minutes (4° C.). The pellet was suspended in the same volume of buffer and the centrifugation was repeated. The supernatants were decanted and the final pellet was suspended in the appropriate buffer and stored at -80° C. until use.
(§6) For the membranal preparation, cells were homogenized in 50 mM Tris-HCl with 120 mM NaCl and 5 mM KC1 (pH 7.4). […] The reaction mixture was incubated at 22° C. for 30 min. The assay was terminated by rapid filtration of the contents of each tube through a GF/B filter strip, which had been pretreated with 0.2% polyethylenimine, with the use of a 48-well Brandel cell harvester. The filter strips were then rinsed five times with ice-cold 0.9% NaCl. Next, individual filters were cut from the strip and placed in a scintillation vial containing 6.5 mL of Redi-Safe (Beckman Instruments, Fullerton, Calif.). Radioactivity was measured with a Beckman liquid scintillation counter (LS 5000TD).
(§7) The program was modified by the inventors to calculate the Hill Coefficient (nH). […] One-component models and two-component models were compared using the root mean square error of each fit and the F test.

Assay [5] deals with human norepinephrine transporter (hNET) (Homo sapiens, UniProt P23975). Type of assay: binding. The following applies: Kd (NE)/Kd (compound or drug) in the hNET binding assay.
Assay [6] has as its target T4, human dopamine transporter (hDAT) (Homo sapiens, UniProt Q01959).
T4 construct: expressed in transfected cells; membranes of cells expressing the cloned hDAT
The assay is described as follows: [3H]WIN35428 binding to cloned human DAT. The note with it: Kd (DA)/Kd (compound or drug) in the hDAT binding assay. As for the experimental part: as §3, §4, §5
(§8) For the membranal preparation, cells were homogenized in the 50 mM Tris-HCl with 120 mM NaCl (pH 7.4). […] The reaction mixture was incubated at 4° C. for 2 hr. The remaining methods were exactly as described for hSERT above.
as §7

In assay [7] the test system is hSERT, hNET, and hDAT. The assay is described as follows: Simultaneous binding to cloned human transporters hSERT, hNET and hDAT. The following applies: for Simultaneous Transporter Binding Potency: Table 4, each of the potency values greater than 7.0; for Simultaneous Transporter Binding Potency (Human): Table 5, comparison of rat and human data; for simultaneous transporter binding potency, in words: human, each value ≥7.0. As for the experimental part:
as §3, §4, §5, §6
For the membranal preparation, cells were homogenized in 50 mM Tris-HCl with 300 mM NaCl and 5 mM KCl (pH 7.4). […] The reaction mixture was incubated at 22° C. for 60 min. The remaining methods were exactly as described for hSERT above.
as §8, §7

The target of assay [8] is T5, 5-HT reuptake into rat brain synaptosomes (Rattus norvegicus, UniProt P31652).
T5 construct: A crude synaptosomal (P2) fraction was prepared; tissue Harlan Sprague-Dawley (animals); host or cells: rat cerebral cortex, crude synaptosomal (P2) fraction
The assay is described as follows: 5-HT reuptake inhibition in rat brain synaptosomes. The class given is biochemical, rat (male Sprague-Dawley), cortical tissue. The note with it: Ki (5-HT)/Ki (compound or drug); Prozac to Serzone derived from literature Ki. On the procedure: as §1, §2

Where [9] appears, read: Table 5, comparison of rat and human data.
Setting [10] is: Kd (5-HT)/Kd (compound or drug) in the hSERT binding assay.

Entries after “also recorded” stand apart in the source; their conditions may differ. Where two headings read alike, the source gives them in different places.

T2 sequence (P23977 whole entry): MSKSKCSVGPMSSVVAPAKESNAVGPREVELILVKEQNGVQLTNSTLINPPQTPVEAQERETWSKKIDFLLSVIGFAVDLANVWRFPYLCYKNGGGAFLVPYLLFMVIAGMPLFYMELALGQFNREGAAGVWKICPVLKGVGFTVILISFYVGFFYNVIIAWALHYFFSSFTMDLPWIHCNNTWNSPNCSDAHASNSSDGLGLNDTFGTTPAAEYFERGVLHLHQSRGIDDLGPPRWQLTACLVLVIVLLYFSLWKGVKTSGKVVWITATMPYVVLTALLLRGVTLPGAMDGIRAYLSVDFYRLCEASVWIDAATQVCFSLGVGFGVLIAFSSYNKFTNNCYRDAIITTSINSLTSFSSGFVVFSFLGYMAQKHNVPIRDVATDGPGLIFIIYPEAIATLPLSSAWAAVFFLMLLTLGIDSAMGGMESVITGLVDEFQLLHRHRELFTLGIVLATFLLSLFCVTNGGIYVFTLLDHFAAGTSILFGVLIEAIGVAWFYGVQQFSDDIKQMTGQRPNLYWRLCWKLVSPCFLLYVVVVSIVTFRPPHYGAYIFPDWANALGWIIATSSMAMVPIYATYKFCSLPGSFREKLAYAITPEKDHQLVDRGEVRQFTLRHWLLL
T4 sequence (Q01959 whole entry): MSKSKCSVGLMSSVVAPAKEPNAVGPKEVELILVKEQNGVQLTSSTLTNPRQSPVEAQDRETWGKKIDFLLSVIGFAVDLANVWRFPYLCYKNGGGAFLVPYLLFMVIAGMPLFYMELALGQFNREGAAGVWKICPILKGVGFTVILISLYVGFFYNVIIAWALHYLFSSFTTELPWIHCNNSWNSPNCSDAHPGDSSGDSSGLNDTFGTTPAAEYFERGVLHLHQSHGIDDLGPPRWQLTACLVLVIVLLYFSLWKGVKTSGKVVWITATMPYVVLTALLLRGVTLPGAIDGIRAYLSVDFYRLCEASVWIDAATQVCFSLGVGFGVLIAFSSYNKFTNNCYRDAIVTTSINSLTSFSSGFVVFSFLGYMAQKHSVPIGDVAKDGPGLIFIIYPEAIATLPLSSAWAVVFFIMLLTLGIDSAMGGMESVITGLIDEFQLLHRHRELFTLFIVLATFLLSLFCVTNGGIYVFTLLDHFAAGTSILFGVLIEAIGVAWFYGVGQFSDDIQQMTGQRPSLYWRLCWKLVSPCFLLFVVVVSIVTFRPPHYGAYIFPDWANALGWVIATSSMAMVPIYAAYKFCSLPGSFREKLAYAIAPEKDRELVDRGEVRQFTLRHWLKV
T3 sequence (P31645 whole entry): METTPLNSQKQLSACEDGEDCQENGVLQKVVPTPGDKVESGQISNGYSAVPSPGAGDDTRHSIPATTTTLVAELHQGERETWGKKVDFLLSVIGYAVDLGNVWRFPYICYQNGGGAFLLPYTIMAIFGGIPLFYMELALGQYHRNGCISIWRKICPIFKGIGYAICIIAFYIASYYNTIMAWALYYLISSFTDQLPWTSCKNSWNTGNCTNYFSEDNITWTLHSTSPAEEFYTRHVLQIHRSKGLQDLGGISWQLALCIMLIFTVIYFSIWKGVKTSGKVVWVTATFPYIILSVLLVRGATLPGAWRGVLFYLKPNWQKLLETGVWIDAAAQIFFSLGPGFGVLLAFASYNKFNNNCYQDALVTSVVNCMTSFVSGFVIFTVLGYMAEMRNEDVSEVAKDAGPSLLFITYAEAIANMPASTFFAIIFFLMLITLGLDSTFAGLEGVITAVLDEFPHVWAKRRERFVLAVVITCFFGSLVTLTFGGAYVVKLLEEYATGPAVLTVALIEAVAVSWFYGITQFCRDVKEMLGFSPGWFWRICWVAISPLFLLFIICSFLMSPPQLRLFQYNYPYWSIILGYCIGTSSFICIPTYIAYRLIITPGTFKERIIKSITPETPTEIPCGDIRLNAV
T1 sequence (Q63380 1-617): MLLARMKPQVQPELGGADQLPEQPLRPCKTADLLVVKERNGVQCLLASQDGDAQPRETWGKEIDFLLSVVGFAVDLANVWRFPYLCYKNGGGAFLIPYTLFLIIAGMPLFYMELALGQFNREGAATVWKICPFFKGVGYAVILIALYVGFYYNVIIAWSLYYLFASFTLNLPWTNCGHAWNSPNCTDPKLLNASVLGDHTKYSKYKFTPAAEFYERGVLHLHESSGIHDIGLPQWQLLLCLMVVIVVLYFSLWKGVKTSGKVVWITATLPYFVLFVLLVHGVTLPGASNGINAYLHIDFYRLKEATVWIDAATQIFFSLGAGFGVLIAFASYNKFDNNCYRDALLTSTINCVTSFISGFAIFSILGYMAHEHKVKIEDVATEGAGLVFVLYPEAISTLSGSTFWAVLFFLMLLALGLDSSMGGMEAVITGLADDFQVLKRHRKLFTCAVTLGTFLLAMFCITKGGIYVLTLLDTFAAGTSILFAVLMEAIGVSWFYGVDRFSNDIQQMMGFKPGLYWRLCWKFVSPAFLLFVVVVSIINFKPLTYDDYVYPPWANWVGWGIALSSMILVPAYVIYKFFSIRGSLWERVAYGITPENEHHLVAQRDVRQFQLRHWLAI
human norepinephrine transporter (hNET), sequence (P23975 whole entry): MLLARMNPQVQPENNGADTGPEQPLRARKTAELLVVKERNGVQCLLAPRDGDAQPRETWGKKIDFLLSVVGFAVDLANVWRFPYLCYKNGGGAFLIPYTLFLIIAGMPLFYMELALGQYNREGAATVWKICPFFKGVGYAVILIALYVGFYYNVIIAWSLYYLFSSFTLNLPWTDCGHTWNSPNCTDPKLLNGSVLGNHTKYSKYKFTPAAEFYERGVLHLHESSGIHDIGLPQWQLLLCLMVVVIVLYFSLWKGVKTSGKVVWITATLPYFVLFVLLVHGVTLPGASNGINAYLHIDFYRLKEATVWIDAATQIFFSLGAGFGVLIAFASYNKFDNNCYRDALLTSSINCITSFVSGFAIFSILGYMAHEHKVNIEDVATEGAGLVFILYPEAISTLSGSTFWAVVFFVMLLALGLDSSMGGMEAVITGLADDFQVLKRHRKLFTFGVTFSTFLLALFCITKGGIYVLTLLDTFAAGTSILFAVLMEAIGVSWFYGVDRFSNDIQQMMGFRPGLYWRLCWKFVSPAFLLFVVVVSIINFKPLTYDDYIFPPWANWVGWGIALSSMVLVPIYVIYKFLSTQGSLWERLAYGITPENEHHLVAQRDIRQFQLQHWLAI
T5 sequence (P31652 whole entry): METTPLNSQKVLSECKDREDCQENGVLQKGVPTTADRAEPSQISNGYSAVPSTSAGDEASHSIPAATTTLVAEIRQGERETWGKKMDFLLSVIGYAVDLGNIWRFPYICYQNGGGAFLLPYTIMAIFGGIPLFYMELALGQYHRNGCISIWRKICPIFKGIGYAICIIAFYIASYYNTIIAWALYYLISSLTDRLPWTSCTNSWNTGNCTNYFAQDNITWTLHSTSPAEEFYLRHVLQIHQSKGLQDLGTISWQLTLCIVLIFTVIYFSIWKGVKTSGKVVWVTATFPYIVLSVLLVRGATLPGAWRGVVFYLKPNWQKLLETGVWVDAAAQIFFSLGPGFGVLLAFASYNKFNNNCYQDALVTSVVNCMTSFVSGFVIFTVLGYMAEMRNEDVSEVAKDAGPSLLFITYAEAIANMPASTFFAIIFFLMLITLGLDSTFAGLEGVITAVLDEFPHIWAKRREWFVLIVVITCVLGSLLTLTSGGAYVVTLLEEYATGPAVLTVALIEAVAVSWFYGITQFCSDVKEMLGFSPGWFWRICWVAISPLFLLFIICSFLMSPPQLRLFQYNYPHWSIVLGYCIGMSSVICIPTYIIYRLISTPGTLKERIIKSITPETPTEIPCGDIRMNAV

For the molecule `CN(C)C[C@H](c1ccc2ccccc2c1)[C@H](O)C(C)(C)C` (relative stereo) [Compound A, (2RS,3RS)-3-Hydroxy-4,4-dimethyl-2-(2'-naphthyl)pentyl-N, N-dimethyl-ammonium chloride], the “NE (Rat) Reuptake Inhibition Potency” value in assay [1] (Ki (NE)/Ki (compound or drug), Prozac to Serzone derived from literature Ki) stood at 12.0. Further, in assay [1] (rat brain synaptosomes), the affinity corresponds to a Ki of 10 ± 1 nM. For the same molecule, the “DA (Rat) Reuptake Inhibition Potency” value in assay [2] worked out at 1.11. The molecule further yielded a Ki in assay [2] (rat brain synaptosomes) of 60 ± 10 nM. Further, in assay [3], the “Simultaneous Reuptake Inhibition Potency” value was “yes (A compound or drug is considered to possess simultaneous reuptake inhibition potency if each of the potency values is greater than 1.0.)”; the “simultaneous reuptake inhibition potency, in words” value is “possess the quality of "simultaneous reuptake inhibition potency"”; the “reuptake inhibition of all three neurotransmitters in both the rat and human models, in words” value was “potently inhibit reuptake of all three neurotransmitters in both the rat and human models”; the “block uptake of all three neurotransmitters (5-HT, NE, and DA), Ki in words” value (“block uptake” for short) is on record as “nanomolar to 10 nanomolar range”. Also, in assay [3] (setting [9]), the “Simultaneous Reuptake Inhibition Potency (Rat)” value was “yes (A compound or drug is considered to possess simultaneous reuptake inhibition potency if each of the potency values is greater than 1.0.)”. Also, the “hSert Binding Potency” value in assay [4] (setting [10]) is given as 1,750. In addition, in assay [5], the “hNet Binding Potency” value came to 73.6. Also, the “hDAT Binding Potency” value in assay [6] amounted to 7.16. Moreover, in assay [7], the “Simultaneous Transporter Binding Potency” value is “yes (A compound or drug is considered to possess "simultaneous transporter binding potency" if each of the potency values is greater than 7.0.)”; the “Simultaneous Transporter Binding Potency (Human)” value is given as “yes (A compound or drug is considered to possess "simultaneous transporter binding potency" if each of the potency values is greater than 7.0.)”; the “simultaneous transporter binding potency, in words” value was “qualify for simultaneous transporter binding potency”.

With `CN(C)C[C@H](c1ccc2ccccc2c1)[C@H](O)c1ccccc1` (relative stereo) [Compound B, (2RS,3RS)-3-Hydroxy-2-(2'-naphthyl)-3-phenylpropyl-N, N-dimethylammonium chloride], in assay [3], the “Simultaneous Reuptake Inhibition Potency” value is recorded as “yes (A compound or drug is considered to possess simultaneous reuptake inhibition potency if each of the potency values is greater than 1.0.)”; the “simultaneous reuptake inhibition potency, in words” value was “possess the quality of "simultaneous reuptake inhibition potency"”; the “reuptake inhibition of all three neurotransmitters in both the rat and human models, in words” value is “potently inhibit reuptake of all three neurotransmitters in both the rat and human models”; the “block uptake” value is reported as “nanomolar to 10 nanomolar range”. In addition, in assay [3] (setting [9]), the “Simultaneous Reuptake Inhibition Potency (Rat)” value is reported as “yes (A compound or drug is considered to possess simultaneous reuptake inhibition potency if each of the potency values is greater than 1.0.)”. Further, the “hSert Binding Potency” value in assay [4] was found to be 376. Also, the “hDAT Binding Potency” value in assay [6] turned out to be 34.3. In assay [7], the “Simultaneous Transporter Binding Potency” value is on record as “yes (A compound or drug is considered to possess "simultaneous transporter binding potency" if each of the potency values is greater than 7.0.)”; the “Simultaneous Transporter Binding Potency (Human)” value is on record as “yes (A compound or drug is considered to possess "simultaneous transporter binding potency" if each of the potency values is greater than 7.0.)”; the “simultaneous transporter binding potency, in words” value was “qualify for simultaneous transporter binding potency”. In addition, in assay [7] (all potency values must be greater than 30), the “simultaneous transporter binding potency, tightened criterion” value is on record as “still qualifies”.

Regarding `CC(C)(C)[C@@H](O)[C@H](CN)c1ccc2ccccc2c1` (relative stereo) [Compound C, (2RS,3RS)-3-hydroxy-4,4-dimethyl-2-(2'-naphthyl)pentyl-ammonium chloride], the “DA (Rat) Reuptake Inhibition Potency” value in assay [2] was 0.57. For the same molecule, the “Simultaneous Reuptake Inhibition Potency” value in assay [3] is “no”. Besides, the “Simultaneous Reuptake Inhibition Potency (Rat)” value in assay [3] (setting [9]) is on record as “no”. For the same molecule, in assay [4] (setting [10]), the “hSert Binding Potency” value is given as 347. The “hNet Binding Potency” value in assay [5] was 39.9. In addition, in assay [6], the “hDAT Binding Potency” value turned out to be 0.09. Moreover, in assay [7], the “Simultaneous Transporter Binding Potency” value is “no” and the “Simultaneous Transporter Binding Potency (Human)” value was “no”.

With `NC[C@H](c1ccc2ccccc2c1)[C@H](O)c1ccccc1` (relative stereo) [Compound D, (2RS,3RS)-3-Hydroxy-2-(2'-naphthyl)-3-phenyl-propylammoni um chloride], the “5-HT (Rat) Reuptake Inhibition Potency” value in assay [8] is on record as 0.68. For the same molecule, in assay [3], the “Simultaneous Reuptake Inhibition Potency” value was “no”; the “simultaneous reuptake inhibition potency, in words” value is listed as “narrowly misses the criterion for simultaneous reuptake inhibition potency”; the “block uptake” value was “nanomolar to 10 nanomolar range”. In assay [3] (setting [9]), the “Simultaneous Reuptake Inhibition Potency (Rat)” value is on record as “no”. Moreover, the “hSert Binding Potency” value in assay [4] (setting [10]) amounted to 340. Further, the “hDAT Binding Potency” value in assay [6] worked out at 16.8. In assay [7], the “Simultaneous Transporter Binding Potency” value is listed as “yes (A compound or drug is considered to possess "simultaneous transporter binding potency" if each of the potency values is greater than 7.0.)”; the “Simultaneous Transporter Binding Potency (Human)” value is on record as “yes (A compound or drug is considered to possess "simultaneous transporter binding potency" if each of the potency values is greater than 7.0.)”; the “simultaneous transporter binding potency, in words” value was “qualify for simultaneous transporter binding potency; also recorded: meets the criterion for simultaneous transporter binding potency”.

Take `COc1ccc(C(CN(C)C)C2(O)CCCCC2)cc1` (centres unmarked) [Effexor ®, reference compound]: the “DA (Rat) Reuptake Inhibition Potency” value in assay [2] is reported as 0.18. Moreover, in assay [3], the “Simultaneous Reuptake Inhibition Potency” value is “no” and the “Simultaneous Reuptake Inhibition Potency (Rat)” value was “no”.

For the molecule `CNCCC(Oc1ccc(C(F)(F)F)cc1)c1ccccc1` (centres unmarked) [Prozac ®, reference compound], in assay [2], the “DA (Rat) Reuptake Inhibition Potency” value amounted to 0.02. For the same molecule, in assay [3], the “Simultaneous Reuptake Inhibition Potency” value is recorded as “no” and the “Simultaneous Reuptake Inhibition Potency (Rat)” value was “no”.

For `CCc1nn(CCCN2CCN(c3cccc(Cl)c3)CC2)c(=O)n1CCOc1ccccc1` [Serzone ®, reference compound], the “DA (Rat) Reuptake Inhibition Potency” value in assay [2] is recorded as 0.03. In assay [3] (Table 2, each of the potency values greater than 1.0), the “Simultaneous Reuptake Inhibition Potency” value is “no”.

Regarding `CNCC[C@@H](Oc1ccccc1C)c1ccccc1` [Tomoxetine, reference compound], the “Simultaneous Reuptake Inhibition Potency” value in assay [3] is listed as “no”.
